Reference: article PMC5784132, “Investigation of 20S-hydroxyvitamin D3 analogs and their 1α-OH derivatives as potent vitamin D receptor agonists with anti-inflammatory activities” (Scientific Reports, 2018)
Read-outs that look alike come from different tables or passages of the source.

Columns and labels:
[1] = parameters: method as in earlier work; conditions: mice, doses as high as 60 µg/kg; cited from earlier work
[2] = rats; cited from earlier work
[3] = target: T1, rat CYP24A1 (Rattus norvegicus, UniProt Q09128); assay: Time courses and product profiles for metabolism of analogs by rat CYP24A1; format: in vitro ADME
T1 construct: made in house; host or cells: E. coli
T1 sequence (Q09128 36-514): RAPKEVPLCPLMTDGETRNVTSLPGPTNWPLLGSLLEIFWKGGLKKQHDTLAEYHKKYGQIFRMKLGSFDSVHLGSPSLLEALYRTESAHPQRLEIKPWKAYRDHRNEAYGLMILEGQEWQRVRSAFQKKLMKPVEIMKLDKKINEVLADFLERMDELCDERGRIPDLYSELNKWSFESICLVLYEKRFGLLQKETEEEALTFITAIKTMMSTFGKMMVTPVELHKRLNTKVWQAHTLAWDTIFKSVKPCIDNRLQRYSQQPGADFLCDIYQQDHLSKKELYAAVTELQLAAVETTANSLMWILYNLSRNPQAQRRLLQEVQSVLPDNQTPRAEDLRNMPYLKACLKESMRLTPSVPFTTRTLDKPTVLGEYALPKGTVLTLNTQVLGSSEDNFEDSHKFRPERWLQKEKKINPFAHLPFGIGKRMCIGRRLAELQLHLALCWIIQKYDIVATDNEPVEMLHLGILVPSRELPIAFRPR
Text: These were identified from authentic standards as 20S,25(OH)2D3, and the two C24 diastereomers of 20S,24(OH)2D3[23],[27]. One of the C24 diastereomers, 20S,24 R(OH)2D3 is the major product and accounts for almost 70% of the total products. […] There were two major products formed from this analog, RT27 and RT30 (indicated by arrows), which accounted for approximately 20% and 30% of the total products, respectively. Compound 23 (Fig. S1E) was converted to at least 6 different products by the incubation with CYP24A1. In contrast, 13 tested under identical conditions generated only one major product with a retention time of 20 min (RT20) and three minor products (Fig. S1D). By 10 min of incubation, almost all of 13 had been metabolized by CYP24A1.
The activity of CYP24A1 with the different analogs was determined as a function of time to determine the initial linear region that could be used for kinetic studies, and to determine any differences in the pattern between analogs. […] The major product of 13 (Fig. S1C, RT20), accounted for 71% of the total secosteroids (products and substrate) at one min and by 20 min it was 95% of all secosteroids. The time course for 20S(OH)D3 in comparison to 4 and 33, reached maximum product formation early in the incubation, with the amount of product at the end of the incubation being only 2.2-fold higher than at one min. By 20 min, less than 15% of the 20S(OH)D3 had been metabolized. […] While initially being metabolized at the lowest rate of any of the analogs, 33 maintained its initial rate longer with more product being present at the end of the 20 min incubation than for any of the other analogs except 13 (Fig. 6).
Figure 6 Time courses for metabolism of 20S(OH)D3 analogs in phospholipid vesicles by rat CYP24A1. 20S(OH)D3, 4, 13, 23 and 33 were incorporated into phospholipid vesicles at a ratio of 0.018 mol/mol phospholipid and incubated with 0.14 µM rat CYP24A1 at 37 °C. Products were analyzed by HPLC.
Rat CYP24A1, mouse CYP27B1 and adrenodoxin and human adrenodoxin reductase were expressed in E. coli and purified as described before[28],[30],[35]. […] Samples from incubations with CYP24A1 were extracted with dichloromethane and analysed by HPLC using a 25 cm Grace Alltima C18 column, as before[27],[28]. […] Products from incubations with CYP27B1 were similarly extracted with dichloromethane and analyzed by reverse phase HPLC using a 15 cm Grace Smart C18 column and an acetonitrile in water gradient (10 min 45% to 100% acetonitrile then 20 min at 100% acetonitrile, at 0.5 mL/min).
Supplementary Fig. S1. […] Samples were analyzed by reverse-phase HPLC using an acetonitrile in water gradient as described in the Methods. […]

[4] = tested on: collagen-induced arthritis; parameters: method as in earlier work; conditions: mouse model, dose as low as 2 µg/kg; cited from earlier work

| amount of product at end of incubation relative to one min ([3]; 20 min incubation versus one min) | substrate metabolized by CYP24A1 ([3]; by 20 min) | substrate metabolized by CYP24A1 ([3]; by 10 min of incubation) | metabolism by CYP24A1 relative to 20S(OH)D3 ([3]; by 20 min, fold greater than 20S(OH)D3) | Compound | hypercalcemia [1] | hypercalcemia [2] | effect on collagen-induced arthritis [4] |
| --- | --- | --- | --- | --- | --- | --- | --- |
| 2.2 fold | less than 15% | – | – | C=C1CC[C@H](O)C/C1=C/C=C1\CCC[C@@]2(C)[C@H]1CC[C@@H]2[C@@](C)(O)CCCC(C)C [20S(OH)D3, 20S-hydroxyvitamin D3] | does not cause hypercalcemia | does not cause hypercalcemia | suppressive effects |
| – | – | almost all | 6 fold | C=C1CC[C@H](O)C/C1=C/C=C1\CCC[C@@]2(C)[C@H]1CC[C@@H]2[C@@](C)(O)CCOC(C)C [compound 13] | – | – | – |
